The results in this text go back to patent US9359308B2, “Pyrazine kinase inhibitors” (Portola Pharmaceuticals, Inc., priority 2011, dated 2016).

Some results are limits rather than exact numbers.

This assay concerns the target T1, full length active recombinant SYK enzyme (Homo sapiens, UniProt P43405).
T1 construct: full length active recombinant SYK enzyme (Millipore, Calif.); purchased Millipore
Briefly: Inhibition of Syk tyrosine phosphorylation activity (LANCE TR-FRET kinase assay). Particulars: activity in the Syk assays, class symbols. In kind it is biochemical. A digest of the protocol:
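1 nM full-length active recombinant SYK phosphorylated 550 nM biotin-DEEDYESP-OH with 100 μM ATP in 50 mM Tris pH 7.5, 5 mM MgCl2, 1 mM DTT and 3% DMSO for 1 h at room temperature. After EDTA quench, Eu-anti-phosphotyrosine/SA-APC TR-FRET was read after 1 h. IC50s came from non-linear regression.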
Background: Time-resolved FRET reads energy transfer from a long-lived donor to a nearby acceptor.
`Cc1cncc(Nc2nc(N[C@H](CC3CC3)C(N)=O)cnc2C(N)=O)c1` [Example 99, (R)-5-(1-amino-3-cyclopropyl-1-oxopropan-2-ylamino)-3-(5-methylpyridin-3-ylamino)pyrazine-2-carboxamide]: the IC50 (in general, the point on the concentration scale where inhibition reaches its midpoint) lay within 1 to 10 nM.

For the molecule `Cc1cc(Nc2nc(N[C@H](CC3CC3)C(N)=O)cnc2C(N)=O)c[n+]([O-])c1` [Example 100, (R)-3-(6-(1-amino-3-cyclopropyl-1-oxopropan-2-ylamino)-3-carbamoylpyrazin-2-ylamino)-5-methylpyridine 1-oxide], the IC50 was in the range of 10 to 100 nM.

For the molecule `Cc1cc(Nc2nc(N[C@H](CC3CC3)C(N)=O)cnc2C(N)=O)ccn1` [Example 101, (R)-5-(1-amino-3-cyclopropyl-1-oxopropan-2-ylamino)-3-(2-methylpyridin-4-ylamino)pyrazine-2-carboxamide], the IC50 lay in the range of 1 to 10 nM.

As to `NC(=O)c1ncc(N[C@@H]2CCCC(F)(F)[C@@H]2N)nc1Nc1cnc2ccccc2c1` [Example 102, 5-((1R,2R)-2-amino-3,3-difluorocyclohexylamino)-3-(quinolin-3-ylamino)pyrazine-2-carboxamide], the IC50 is 10 to 100 nM.

Turning to `Cc1cccc(Nc2nc(N[C@@H]3CCCC(F)(F)[C@@H]3N)cnc2C(N)=O)c1` [Example 103, 5-((1R,2R)-2-amino-3,3-difluorocyclohexylamino)-3-(m-tolylamino)pyrazine-2-carboxamide], the IC50 was 10 to 100 nM.

In the case of `NC(=O)c1ncc(N[C@@H]2CCNC2)nc1Nc1cccc(-n2nccn2)c1` [Example 105, (R)-3-((3-(2H-1,2,3-triazol-2-yl)phenyl)amino)-5-(pyrrolidin-3-ylamino)pyrazine-2-carboxamide], the IC50 was in the range of 1 to 10 nM.

On to `NC(=O)c1ncc(N[C@@H]2CCNC2)nc1Nc1csc2ncccc12` [Example 106, (R)-5-(pyrrolidin-3-ylamino)-3-(thieno[2,3-b]pyridin-3-ylamino)pyrazine-2-carboxamide], for which the IC50 lay within 1 to 10 nM.

For the molecule `NC(=O)c1ncc(N[C@@H]2CCNC2)nc1Nc1cnn2ccccc12` [Example 107, (R)-3-(pyrazolo[1,5-a]pyridin-3-ylamino)-5-(pyrrolidin-3-ylamino)pyrazine-2-carboxamide], the half-inhibitory concentration (IC50) is 10 to 100 nM.

Turning to `NC(=O)c1ncc(N[C@H]2CCNC2)nc1Nc1ccc2ncccc2c1` [Example 108, (S)-5-(pyrrolidin-3-ylamino)-3-(quinolin-6-ylamino)pyrazine-2-carboxamide], the IC50 lay in the range of 10 to 100 nM.

In the case of `CC(=O)N1CCC[C@H](Nc2cnc(C(N)=O)c(Nc3cnc4ccccc4c3)n2)C1` [Example 109, (S)-5-((1-acetylpiperidin-3-yl)amino)-3-(quinolin-3-ylamino)pyrazine-2-carboxamide], the IC50 was greater than 1000 nM.

Take `CC(=O)N1CC[C@@H](Nc2cnc(C(N)=O)c(Nc3cnc4ccccc4c3)n2)C1` [Example 110, (R)-5-((1-acetylpyrrolidin-3-yl)amino)-3-(quinolin-3-ylamino)pyrazine-2-carboxamide]: the half-maximal inhibitory concentration (IC50) is greater than 1000 nM.

As for `CC(=O)N1CC[C@@H](Nc2cnc(C(N)=O)c(Nc3ccc4ncccc4c3)n2)C1` [Example 111, (R)-5-((1-acetylpyrrolidin-3-yl)amino)-3-(quinolin-6-ylamino)pyrazine-2-carboxamide], the IC50 was greater than 1000 nM.

In the case of `Cc1ccc(Nc2nc(N[C@@H]3CCNC3)cnc2C(N)=O)cc1` [Example 112, (R)-5-(pyrrolidin-3-ylamino)-3-(p-tolylamino)pyrazine-2-carboxamide], the IC50 lay in the range of 10 to 100 nM.

For `NC(=O)c1ncc(N[C@@H]2CCNC2)nc1Nc1cccnc1` [Example 113, (R)-3-(pyridin-3-ylamino)-5-(pyrrolidin-3-ylamino)pyrazine-2-carboxamide], the IC50 lay within 10 to 100 nM.

As to `NC(=O)c1ncc(N[C@@H]2CCNC2)nc1Nc1cccc(-c2ncccn2)c1` [Example 114, (R)-3-((3-(pyrimidin-2-yl)phenyl)amino)-5-(pyrrolidin-3-ylamino)pyrazine-2-carboxamide], the IC50 was in the range of 1 to 10 nM.

For `NC(=O)c1ncc(N[C@@H]2CCNC2)nc1Nc1cncc(F)c1` [Example 115, (R)-3-((5-fluoropyridin-3-yl)amino)-5-(pyrrolidin-3-ylamino)pyrazine-2-carboxamide], the IC50 was in the range of 100 to 1000 nM.

Regarding `Cc1cccc(Nc2nc(N[C@@H]3CCNC3)cnc2C(N)=O)c1` [Example 116, (R)-5-(pyrrolidin-3-ylamino)-3-(m-tolylamino)pyrazine-2-carboxamide], the half-inhibitory concentration (IC50) fell in the range of 1 to 10 nM.

As to `NC(=O)c1ncc(N[C@@H]2CCNC2)nc1Nc1cnc2ccncc2c1` [Example 117, (R)-3-((1,6-naphthyridin-3-yl)amino)-5-(pyrrolidin-3-ylamino)pyrazine-2-carboxamide], the half-inhibitory concentration (IC50) lay within 10 to 100 nM.

Regarding `N#CCN1CC[C@@H](Nc2cnc(C(N)=O)c(Nc3cnc4ccncc4c3)n2)C1` [Example 118, (R)-3-((1,6-naphthyridin-3-yl)amino)-5-((1-(cyanomethyl)pyrrolidin-3-yl)amino)pyrazine-2-carboxamide], the IC50 was in the range of 100 to 1000 nM.

For `Cc1cc(Nc2nc(N[C@H](CC(F)F)C(N)=O)cnc2C(N)=O)sn1` [Example 119, (R)-5-((1-amino-4,4-difluoro-1-oxobutan-2-yl)amino)-3-((3-methylisothiazol-5-yl)amino)pyrazine-2-carboxamide], the IC50 fell in the range of 1 to 10 nM.

Regarding `Cc1nsc(Nc2nc(N[C@@H]3CCCC[C@@H]3N)cnc2C(N)=O)c1-c1ccccc1` [Example 120, 5-(((1R,2S)-2-aminocyclohexyl)amino)-3-((3-methyl-4-phenylisothiazol-5-yl)amino)pyrazine-2-carboxamide], the IC50 is 10 to 100 nM.

Turning to `Cc1nsc(Nc2nc(N[C@@H]3CCCC[C@@H]3N)cnc2C(N)=O)c1-c1cccnc1` [Example 121], the IC50 was 100 to 1000 nM.

Take `Cc1ccc(Nc2nc(N[C@H](CC(F)F)C(N)=O)cnc2C(N)=O)cc1C` [Example 122, (R)-5-((1-amino-4,4-difluoro-1-oxobutan-2-yl)amino)-3-((3,4-dimethylphenyl)amino)pyrazine-2-carboxamide]: the IC50 is less than 1 nM.

As for `Cc1ccc(Nc2nc(N[C@H](CC(F)F)C(N)=O)cnc2C(N)=O)cc1` [Example 123, (R)-5-((1-amino-4,4-difluoro-1-oxobutan-2-yl)amino)-3-(p-tolylamino)pyrazine-2-carboxamide], the IC50 was in the range of 1 to 10 nM.

For the molecule `Cc1nsc(Nc2nc(N[C@@H]3CCCC[C@@H]3N)cnc2C(N)=O)c1-c1cncnc1` [Example 125, 5-(((1R,2S)-2-aminocyclohexyl)amino)-3-((3-methyl-4-(pyrimidin-5-yl)isothiazol-5-yl)amino)pyrazine-2-carboxamide], the IC50 is greater than 1000 nM.

With `NC(=O)c1ncc(N[C@H](CC(F)(F)F)C(N)=O)nc1Nc1cnc2cccnc2c1` [Example 126, (R)-3-((1,5-naphthyridin-3-yl)amino)-5-((1-amino-4,4,4-trifluoro-1-oxobutan-2-yl)amino)pyrazine-2-carboxamide], the IC50 fell in the range of 1 to 10 nM.

Turning to `NC(=O)c1ncc(N[C@H](CC(F)F)C(N)=O)nc1Nc1cnc2cccnc2c1` [Example 127, (R)-3-((1,5-naphthyridin-3-yl)amino)-5-((1-amino-4,4-difluoro-1-oxobutan-2-yl)amino)pyrazine-2-carboxamide], the IC50 was 1 to 10 nM.

Turning to `NC(=O)c1ncc(NCC2(N)CC2)nc1Nc1ccc2ncccc2c1` [Example 128, 5-(((1-aminocyclopropyl)methyl)amino)-3-(quinolin-6-ylamino)pyrazine-2-carboxamide], the IC50 fell in the range of 1 to 10 nM.

For the molecule `CNC1(CNc2cnc(C(N)=O)c(Nc3ccc4ncccc4c3)n2)CC1` [Example 129, 5-(((1-(methylamino)cyclopropyl)methyl)amino)-3-(quinolin-6-ylamino)pyrazine-2-carboxamide], the IC50 fell in the range of 1 to 10 nM.

As for `CCc1c(C)nsc1Nc1nc(N[C@@H]2CCCC[C@@H]2N)cnc1C(N)=O` [Example 130, 5-(((1R,2S)-2-aminocyclohexyl)amino)-3-((4-ethyl-3-methylisothiazol-5-yl)amino)pyrazine-2-carboxamide], the IC50 is 1 to 10 nM.

On to `Cc1nsc(Nc2nc(N[C@@H]3CCCC[C@@H]3N)cnc2C(N)=O)c1C` [Example 131, 5-(((1R,2S)-2-aminocyclohexyl)amino)-3-((3,4-dimethylisothiazol-5-yl)amino)pyrazine-2-carboxamide], for which the IC50 is less than 1 nM.

Turning to `CC[C@@H](Nc1cnc(C(N)=O)c(Nc2snc(C)c2Br)n1)C(N)=O` [Example 132, (R)-5-((1-amino-1-oxobutan-2-yl)amino)-3-((4-bromo-3-methylisothiazol-5-yl)amino)pyrazine-2-carboxamide], the IC50 was 10 to 100 nM.

In the case of `CC[C@@H](Nc1cnc(C(N)=O)c(Nc2snc(C)c2I)n1)C(N)=O` [Example 133, (R)-5-((1-amino-1-oxobutan-2-yl)amino)-3-((4-iodo-3-methylisothiazol-5-yl)amino)pyrazine-2-carboxamide], the half-inhibitory concentration (IC50) is 10 to 100 nM.

`CC[C@@H](Nc1nc(Nc2snc(C)c2I)c(C(N)=O)nc1I)C(N)=O` [Example 134, (R)-5-((1-amino-1-oxobutan-2-yl)amino)-6-iodo-3-((4-iodo-3-methylisothiazol-5-yl)amino)pyrazine-2-carboxamide]: the 50% inhibitory concentration (IC50) fell in the range of 100 to 1000 nM.

With `CC[C@@H](Nc1cnc(C(N)=O)c(Nc2snc(C)c2Cl)n1)C(N)=O` [Example 135, (R)-5-((1-amino-1-oxobutan-2-yl)amino)-3-((4-chloro-3-methylisothiazol-5-yl)amino)pyrazine-2-carboxamide], the IC50 lay within 10 to 100 nM.

Take `Cc1cc(Nc2nc(N[C@H](CC3CC3)C(N)=O)c(Cl)nc2C(N)=O)sn1` [Example 136, (R)-5-((1-amino-3-cyclopropyl-1-oxopropan-2-yl)amino)-6-chloro-3-((3-methylisothiazol-5-yl)amino)pyrazine-2-carboxamide]: the IC50 lay within 10 to 100 nM.
